The supplement of paper PMC10307832

Assays:
Test in all cases: relative viability (nuclei count vs DMSO), 5 days (fraction); higher = more cells survive
[1] = compound: C1COCCN1C2=NC(=NC3=C2OC4=C3C=CC=N4)C5=CC(=CC=C5)NC(=O)C6=CN=C(C=C6)N + CC(C)C[C@H](NC(=O)[C@H](Cc1ccccc1)NC(=O)c1cnccn1)B(O)O [Bortezomib] (partner 0.002 µM)
Summary of the method: (§1)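 Dosing by pin tool came one day after lung cancer cell lines were seeded in 1536-well plates, using either one drug or a fixed anchor-drug dose plus five library-drug doses (not always all listed) in √10 steps. After 5 days, nuclei were counted on 4× images. Relative viability is treated-well nuclei count divided by vehicle-well nuclei count, and values are medians of duplicate plates.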

[2] = compound: C1COCCN1C2=NC(=NC3=C2OC4=C3C=CC=N4)C5=CC(=CC=C5)NC(=O)C6=CN=C(C=C6)N + C[C@]1(O)C[C@@H](c2nc(-c3ccc4ccc(-c5ccccc5)nc4c3)c3c(N)nccn32)C1 [Linsitinib] (partner 1 µM)
Summary of the method: as §1

SGI-1776 + Pemetrexed = compound: CN1CCC(CNc2ccc3ncc(-c4cccc(OC(F)(F)F)c4)n3n2)CC1 [SGI-1776] + Nc1nc2[nH]cc(CCc3ccc(C(=O)N[C@@H](CCC(=O)O)C(=O)O)cc3)c2c(=O)[nH]1 [Pemetrexed] (partner 0.2 µM)
Summary of the method: as §1

Entinostat + OSI-027 = compound: Nc1ccccc1NC(=O)c1ccc(CNC(=O)OCc2cccnc2)cc1 [Entinostat] + COc1cccc2cc(-c3nc([C@H]4CC[C@H](C(=O)O)CC4)n4ncnc(N)c34)[nH]c12 [OSI-027] (partner 0.5 µM)
Summary of the method: as §1

Cell Line	relative viability ([1]; first compound 0.02 µM)	relative viability ([1]; first compound 0.06325 µM)	relative viability ([1]; first compound 0.2 µM)	relative viability ([1]; first compound 0.6325 µM)	relative viability ([1]; first compound 2 µM)	relative viability ([2]; first compound 0.02 µM)	relative viability ([2]; first compound 0.06325 µM)	relative viability ([2]; first compound 0.2 µM)	relative viability ([2]; first compound 0.6325 µM)	relative viability ([2]; first compound 2 µM)	relative viability (SGI-1776 + Pemetrexed; first compound 0.08 µM)	relative viability (SGI-1776 + Pemetrexed; first compound 0.8 µM)	relative viability (SGI-1776 + Pemetrexed; first compound 2.53 µM)	relative viability (SGI-1776 + Pemetrexed; first compound 8 µM)	relative viability (Entinostat + OSI-027; first compound 0.02 µM)	relative viability (Entinostat + OSI-027; first compound 0.06325 µM)	relative viability (Entinostat + OSI-027; first compound 0.2 µM)	relative viability (Entinostat + OSI-027; first compound 0.6325 µM)	relative viability (Entinostat + OSI-027; first compound 2 µM)
HCC-366	1.43	1.23	1.09	1.11	0.525	0.918	0.82	0.574	0.472	0.207	0.184	0.17	0.172	0.164	0.922	0.972	0.854	0.214	0.0783
HCC-827	1.07	1.07	1.17	1.15	1.08	0.924	0.929	0.968	1.01	0.988	0.393	0.268	0.24	0.226	0.713	0.749	0.688	0.402	0.292
HOP-62	0.743	0.848	0.897	0.967	0.291	0.675	0.967	0.825	0.934	0.773	0.306	0.363	0.325	0.31	0.801	0.882	0.85	0.49	0.248
IA-LM		0.78	0.537	0.645	0.39	0.439	0.696	0.526	0.565	0.327									
LC-2-ad	1.09	1.05	0.998	1.03	0.898	0.836	0.866	0.837	0.826	0.589	0.286	0.288	0.285	0.254	0.768	0.842	0.578	0.349	0.27
LCLC-97TM1	0.704	0.635	0.499	0.802	0.233		0.199	0.174	0.232	0.22	0.182	0.2	0.143	0.182	0.583	0.462	0.51	0.408	0.43
LCLC-103H	0.969	1.24	1	0.978	0.722	1.05	1.15	1.21	1.03	0.978	0.488	0.446	0.452	0.466	0.473	0.555	0.504	0.393	0.279
LK-2						0.464	0.797	0.625	0.624	0.395	0.295	0.352	0.291	0.201	0.221	0.187	0.188	0.188	0.18
NCI-H358						0.671	0.827	0.674	0.721	0.584	0.177	0.218	0.168	0.161	0.879	0.992	0.796	0.496	0.169
NCI-H522											0.953	0.867	0.98	0.889	0.84	0.764	0.85	0.688	0.555
NCI-H727	0.748	0.834	0.806	1.12	0.536	0.284	0.31	0.24	0.257	0.256					0.679	0.808	0.5	0.493	0.398
NCI-H1299	1.06	1.05	1.02	1.03	0.798	0.922	1.13	0.953	1	0.805									
NCI-H1395						0.901	1	1.08	1.19	0.875	0.876	0.836	0.784	0.605	0.716	0.764	0.583	0.647	0.505
NCI-H1623															0.445	0.565	0.429	0.298	0.339
NCI-H1648											0.617	0.868	0.688	0.683	0.247	0.27	0.257	0.271	0.296
NCI-H1650	0.179	0.23	0.205	0.191	0.188						0.348	0.367	0.36	0.296	0.73	0.585	0.589	0.349	0.184
NCI-H1703	0.229	0.278	0.249	0.267	0.236	0.412	0.567	0.747	0.757	0.381									
NCI-H1793						0.953	0.845	0.834	0.911	0.475	0.947	1.17	0.835	0.689	0.291	0.316	0.285	0.2	0.204
NCI-H1944						1.19	1.17	1.16	1.13	1	0.727	0.757	0.591	0.559	0.382	0.404	0.362	0.233	0.208
NCI-H2170											0.225	0.287	0.254	0.295	0.745	0.65	0.742	0.607	0.373
NCI-H2342											0.815	0.888	0.802	0.819	0.651	0.587	0.629	0.598	0.524
SK-MES-1						0.99	1.24	1.13	1.04	0.791	1.11	1	0.999	0.647	0.584	0.66	0.792	0.595	0.532
SW 900											0.488	0.486	0.493	0.46	0.696	0.659	0.647	0.319	0.397
